Measurements published in patent publication US10494376B2, “Tetrahydroisoquinoline derived PRMT5-inhibitors” (CTXT PTY LTD, priority 2014, dated 2019).
Structures can show the parent of a compound that is named as a salt.

Target: Full-length PRMT5 enzyme (NCBI Reference sequence NP_006100.2) co-expressed with His6-MEP50 (Homo sapiens (Human), UniProt O14744)
Assay: Revised PRMT5 Biochemical Assay
Conditions: 1 μM peptide substrate, 1 μM S-Adenosyl methionine, 4 hours at 37 degree Celsius, Transcreener EPIGEN fluorescence polarisation
Protocol: Compounds of the invention may be tested for in vitro activity in the following assay: A histone H4 derived peptide is used as substrate (amino acid sequence: […]N H2). Full-length PRMT5 enzyme (NCBI Reference sequence NP_006100.2) was co-expressed with His6-MEP50 in insect cells and purified via Nickel immobilized metal affinity and gel filtration chromatography (“the enzyme”).
The 6 μL reactions are run in Greiner brand black 384-well low volume assay plates. All reactions contained assay buffer (phosphate buffered saline, 0.01% (v/v) Tween-20, 0.01% (w/v) albumin from chicken egg white, 1 mM Dithiothreitol, 1 μM peptide substrate, 1 μM S-Adenosyl methionine, and 15 ng/reaction enzyme, with the enzyme being omitted from negative control reactions. Compounds were added in a volume of 100 nL from dilution series prepared in DMSO, positive and negative control reactions receiving the same volume DMSO without compound. The plates were sealed with adhesive seals and incubated for 4 hours at 37 degree Celsius. Reaction progress was measured using the Transcreener™ EPIGEN methyltransferase assay (BellBrook Labs, Madison, Wis.) as recommended by the manufacturer. To each reaction 2 μL detection mix were added, containing coupling enzymes, fluorescence polarisation tracer, and AMP antibody. Plates were incubated for 90 minutes before being read on a PerkinElmer EnVision™ plate reader in fluorescence polarisation mode. IC50 values were obtained from the raw readings by calculating percent inhibition (%1) for each reaction relative to controls on the same plate (% I=(I−CN)/(CP−CN) where CN/CP are the averages of the negative/positive reactions, respectively), then fitting the %1 data vs. compound concentration [I] to % I=(A+((B−A)/(1+((C/[I])^D)))) where A is the lower asymptote, B is the upper asymptote, C is the IC50 value, and D is the slope.

Chain of Full-length PRMT5 enzyme (NCBI Reference sequence NP_006100.2) co-expressed with His6-MEP50 (O14744 whole entry): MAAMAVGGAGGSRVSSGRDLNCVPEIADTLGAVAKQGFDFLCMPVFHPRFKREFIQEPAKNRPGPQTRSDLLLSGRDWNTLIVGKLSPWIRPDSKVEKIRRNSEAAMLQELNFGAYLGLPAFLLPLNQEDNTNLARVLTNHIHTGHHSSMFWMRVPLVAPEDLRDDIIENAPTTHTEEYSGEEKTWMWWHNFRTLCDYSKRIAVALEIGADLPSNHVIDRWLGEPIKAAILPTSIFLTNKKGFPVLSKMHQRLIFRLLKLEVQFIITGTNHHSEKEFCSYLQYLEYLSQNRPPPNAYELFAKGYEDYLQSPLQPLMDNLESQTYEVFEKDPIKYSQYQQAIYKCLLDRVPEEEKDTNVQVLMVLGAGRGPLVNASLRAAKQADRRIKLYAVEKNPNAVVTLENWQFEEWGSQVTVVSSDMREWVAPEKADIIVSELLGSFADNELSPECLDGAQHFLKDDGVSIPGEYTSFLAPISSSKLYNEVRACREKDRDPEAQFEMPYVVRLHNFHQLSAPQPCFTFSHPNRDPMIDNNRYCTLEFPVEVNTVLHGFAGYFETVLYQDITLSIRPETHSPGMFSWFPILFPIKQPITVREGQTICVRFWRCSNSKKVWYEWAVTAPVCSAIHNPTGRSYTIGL
Chain of Full-length PRMT5 enzyme (NCBI Reference sequence NP_006100.2) co-expressed with His6-MEP50 (Q9BQA1 whole entry partner): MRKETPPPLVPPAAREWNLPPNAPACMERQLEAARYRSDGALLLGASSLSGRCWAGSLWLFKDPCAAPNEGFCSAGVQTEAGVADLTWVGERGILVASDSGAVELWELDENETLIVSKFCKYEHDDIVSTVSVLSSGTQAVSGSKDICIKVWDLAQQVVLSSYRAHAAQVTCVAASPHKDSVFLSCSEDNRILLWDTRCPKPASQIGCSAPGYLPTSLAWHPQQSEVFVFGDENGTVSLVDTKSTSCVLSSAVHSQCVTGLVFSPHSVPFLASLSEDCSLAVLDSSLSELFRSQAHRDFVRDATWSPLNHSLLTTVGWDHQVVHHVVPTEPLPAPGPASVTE

Structure (SMILES)	IC50
COC(=O)N1CCC(Oc2cccc(C(=O)NC[C@@H](O)[C@@H]3Cc4ccccc4CN3)c2)CC1 [Example 60, Methyl 4-(3-(((R)-2-hydroxy-2-((S)-1,2,3,4-tetrahydroisoquinolin-3-yl)ethyl)carbamoyl)phenoxy)piperidine-1-carboxylate]	3300 nM
O=C(NC[C@@H](O)[C@@H]1Cc2ccccc2CN1)c1ccccc1F [Example 9, 2-Fluoro-N-((R)-2-hydroxy-2-((S)-1,2,3,4-tetrahydroisoquinolin-3-yl)ethyl)benzamide]	12500 nM
COC(=O)N1CCC(Oc2cc(C(=O)NC[C@@H](O)[C@@H]3Cc4ccccc4CN3)ncn2)CC1 [Example 76, Methyl 4-((6-(((R)-2-hydroxy-2-((S)-1,2,3,4-tetrahydroisoquinolin-3-yl)ethyl)carbamoyl)pyrimidin-4-yl)oxy)piperidine-1-carboxylate dihydrochloride]	262 nM
CC(C)N(C)C(=O)c1ccc(C(=O)NC[C@@H](O)[C@@H]2Cc3ccccc3CN2)cc1 [Example 39, N^1-((R)-2-Hydroxy-2-((S)-1,2,3,4-tetrahydroisoquinolin-3-yl)ethyl)-N^4-isopropyl-N^4-methylterephthalamide]	846 nM
O=C(NC[C@@H](O)[C@@H]1Cc2ccccc2CN1)c1ccc(C(=O)N2CCC(C(F)F)CC2)cc1 [Example 46, 4-(4-(Difluoromethyl)piperidine-1-carbonyl)-N-((R)-2-hydroxy-2-((S)-1,2,3,4-tetrahydroisoquinolin-3-yl)ethyl)benzamide]	230 nM
O=C(NC[C@@H](O)[C@@H]1Cc2ccccc2CN1)c1cccc(C(=O)N2CCOCC2)c1 [Example 24, N-((R)-2-Hydroxy-2-((S)-1,2,3,4-tetrahydroisoquinolin-3-yl)ethyl)-3-(morpholine-4-carbonyl)benzamide]	3690 nM
O=C(NC[C@@H](O)[C@@H]1Cc2ccccc2CN1)c1ccnc(C(F)(F)F)c1 [Example 86, N-((R)-2-Hydroxy-2-((S)-1,2,3,4-tetrahydroisoquinolin-3-yl)ethyl)-2-(trifluoromethyl)isonicotinamide dihydrochloride]	3820 nM
CC(C)Oc1ccc(C(=O)NC[C@@H](O)[C@@H]2Cc3ccccc3CN2)cn1 [Example 59, N-((R)-2-Hydroxy-2-((S)-1,2,3,4-tetrahydroisoquinolin-3-yl)ethyl)-6-isopropoxynicotinamide]	593 nM
NC(=O)COc1ccccc1C(=O)NC[C@@H](O)[C@@H]1Cc2ccccc2CN1 [Example 65, 2-(2-Amino-2-oxoethoxy)-N-((R)-2-hydroxy-2-((S)-1,2,3,4-tetrahydroisoquinolin-3-yl)ethyl)benzamide]	2290 nM
O=C(NC[C@@H](O)[C@@H]1Cc2ccccc2CN1)c1ccc(C(=O)N2Cc3cccnc3C2)cc1 [Example 96, 4-(6,7-Dihydro-5H-pyrrolo[3,4-b]pyridine-6-carbonyl)-N-((R)-2-hydroxy-2-((S)-1,2,3,4-tetrahydroisoquinolin-3-yl)ethyl)benzamide]	1380 nM
CCOc1cc(-c2nnc(C)o2)ccc1C(=O)NC[C@@H](O)[C@@H]1Cc2ccccc2CN1 [Example 89, 2-Ethoxy-N-((R)-2-hydroxy-2-((S)-1,2,3,4-tetrahydroisoquinolin-3-yl)ethyl)-4-(5-methyl-1,3,4-oxadiazol-2-yl)benzamide]	203 nM
O=C(NC[C@@H](O)[C@@H]1Cc2ccccc2CN1)c1ccc(C(=O)N2CCCC2)cc1 [Example 90, N-((R)-2-Hydroxy-2-((S)-1,2,3,4-tetrahydroisoquinolin-3-yl)ethyl)-4-(pyrrolidine-1-carbonyl)benzamide]	947 nM
O=C(NC[C@@H](O)[C@@H]1Cc2ccccc2CN1)c1ccc(C(=O)N2CC3CC2CO3)cc1 (mixture of isomers) [Example 94, 4-(2-Oxa-5-azabicyclo[2.2.1]heptane-5-carbonyl)-N-((R)-2-hydroxy-2-((S)-1,2,3,4-tetrahydroisoquinolin-3-yl)ethyl)benzamide]	780 nM
O=C(NC[C@@H](O)[C@@H]1Cc2ccccc2CN1)c1ccccc1C(F)(F)F [Example 5, N-((R)-2-Hydroxy-2-((S)-1,2,3,4-tetrahydroisoquinolin-3-yl)ethyl)-2-(trifluoromethyl)benzamide]	51100 nM
O=C(NC[C@@H](O)[C@@H]1Cc2ccccc2CN1)c1ccc(C(=O)N2CCC(CO)CC2)cc1 [Example 32, N-((R)-2-Hydroxy-2-((S)-1,2,3,4-tetrahydroisoquinolin-3-yl)ethyl)-4-(4-(hydroxymethyl)piperidine-1-carbonyl)benzamide]	511 nM
CCS(=O)(=O)N1CCN(C(=O)c2ccc(C(=O)NC[C@@H](O)[C@@H]3Cc4ccccc4CN3)cc2)CC1 [Example 33, 4-(4-(Ethylsulfonyl)piperazine-1-carbonyl)-N-((R)-2-hydroxy-2-((S)-1,2,3,4-tetrahydroisoquinolin-3-yl)ethyl)benzamide]	305 nM
O=C(NC[C@@H](O)[C@@H]1Cc2ccccc2CN1)c1ccncc1 [Example 77, N-((R)-2-Hydroxy-2-((S)-1,2,3,4-tetrahydroisoquinolin-3-yl)ethyl)isonicotinamide dihydrochloride]	8760 nM
O=C(NC[C@@H](O)[C@@H]1Cc2ccccc2CN1)c1ccnc(C2CCOCC2)c1 [Example 73, N-((R)-2-Hydroxy-2-((S)-1,2,3,4-tetrahydroisoquinolin-3-yl)ethyl)-2-(tetrahydro-2H-pyran-4-yl)isonicotinamide dihydrochloride]	2270 nM
O=C(NC[C@@H](O)[C@@H]1Cc2ccccc2CN1)c1ccc(OCC(F)(F)F)nc1 [Example 57, N-((R)-2-Hydroxy-2-((S)-1,2,3,4-tetrahydroisoquinolin-3-yl)ethyl)-6-(2,2,2-trifluoroethoxy)nicotinamide]	594 nM
O=C(NC[C@@H](O)[C@@H]1Cc2ccccc2CN1)c1ccc(C(=O)N2CCCOCC2)cc1 [Example 40, N-((R)-2-Hydroxy-2-((S)-1,2,3,4-tetrahydroisoquinolin-3-yl)ethyl)-4-(1,4-oxazepane-4-carbonyl)benzamide]	705 nM
O=C(NC[C@@H](O)[C@@H]1Cc2ccccc2CN1)c1ccc(-c2nnc(N3CCOCC3)o2)cc1 [Example 13, N-((R)-2-Hydroxy-2-((S)-1,2,3,4-tetrahydroisoquinolin-3-yl)ethyl)-4-(5-morpholino-1,3,4-oxadiazol-2-yl)benzamide]	551 nM
O=C(NC[C@@H](O)[C@@H]1Cc2ccccc2CN1)c1ccc(C(=O)N2C[C@H]3COC[C@H]3C2)cc1 [Example 36, 4-(cis-Hexahydro-1H-furo[3,4-c]pyrrole-5-carbonyl)-N-((R)-2-hydroxy-2-((S)-1,2,3,4-tetrahydroisoquinolin-3-yl)ethyl)benzamide]	148 nM
O=C(NC[C@@H](O)[C@@H]1Cc2ccccc2CN1)c1ccc(C(=O)N2CCOCC2)cn1 [Example 29, N-((R)-2-Hydroxy-2-((S)-1,2,3,4-tetrahydroisoquinolin-3-yl)ethyl)-5-(morpholine-4-carbonyl)picolinamide dihydrochloride salt]	535 nM
CC(C)Oc1cc(C(=O)NC[C@@H](O)[C@@H]2Cc3ccccc3CN2)ccn1 [Example 64, N-((R)-2-hydroxy-2-((S)-1,2,3,4-tetrahydroisoquinolin-3-yl)ethyl)-2-isopropoxyisonicotinamide]	261 nM
CC(=O)N1CCC(Oc2cc(C(=O)NC[C@@H](O)[C@@H]3Cc4ccccc4CN3)cnn2)CC1 [Example 116, 6-((1-Acetylpiperidin-4-yl)oxy)-N-((R)-2-hydroxy-2-((S)-1,2,3,4-tetrahydroisoquinolin-3-yl)ethyl)pyridazine-4-carboxamide dihydrochloride]	1110 nM
O=C(NC[C@@H](O)[C@@H]1Cc2ccccc2CN1)c1cccc2c1ncn2C1CCOCC1 [Example 117, N-((R)-2-Hydroxy-2-((S)-1,2,3,4-tetrahydroisoquinolin-3-yl)ethyl)-1-(tetrahydro-2H-pyran-4-yl)-1H-benzo[d]imidazole-4-carboxamide dihydrochloride]	487 nM
CC(NC(=O)c1ccc(C(=O)N2CCOCC2)cc1)[C@@H](O)[C@@H]1Cc2ccccc2CN1 (stereo partly drawn) [Example 109, N-((1R)-1-Hydroxy-1-((S)-1,2,3,4-tetrahydroisoquinolin-3-yl)propan-2-yl)-4-(morpholine-4-carbonyl)benzamide hydrochloride]	688 nM
CC(=O)N1CCC(N(C)C(=O)c2ccc(C(=O)NC[C@@H](O)[C@@H]3Cc4ccccc4CN3)cc2)CC1 [Example 19, N^1-(1-Acetylpiperidin-4-yl)-N^4-((R)-2-hydroxy-2-((S)-1,2,3,4-tetrahydroisoquinolin-3-yl)ethyl)-N^1 methylterephthalamide]	912 nM
O=C(NC[C@@H](O)[C@H]1Cc2ccccc2CN1)c1ccc(C(=O)N2CCOCC2)cc1 [Example 54, N—((R)-2-Hydroxy-2-((R)-1,2,3,4-tetrahydroisoquinolin-3-yl)ethyl)-4-(morpholine-4-carbonyl)benzamide hydrochloride]	82100 nM
